In US20030207813A1, “Retroviral protease inhibitor combinations” (priority 1995, published 2003):
Converted amounts (≈) assume the structure as drawn. Read-outs that look alike come from different tables or passages of the source.

Key:
[1] = test system: HIV-1 strain 89-959; assay: Acute infectivity assay in PHA-activated donor lymphocytes, isolate 89-959; format: cell-based; conditions: Human immunodeficiency virus 1, Lymphocyte, Table 3, footnote marks show values of the same experiment, read-out: Virus Isolate (EC50 ng/mL) 89-959
Experimental: (§1) Approximately 3×10^7 cells are activated for 48 hours with about 3-5 μg/ml PHA in RPMI continuing 10% fetal bovine serum and IL-2 (10 U/ml). Quantitated virus stocks are added to the activated lymphocyte suspension at a multiplicity of infection of about 0.001-0.01. The cell-virus suspension is incubated at 37° C. for 2 hours to allow virus absorption. The residual virus inoculum is removed by centrifugation and the cells are resuspended in RPMI containing 10% FBS and 10 U/ml IL-2. These infected cells are added to the test-article diluted in complete tissue culture medium from a stock (10 mg/ml) in DMSO in 96 well microtiter plates to give about 5×10^5 cells per well per 200 μl. Infected, untreated cells and cells treated with DMSO alone (0.1%) or either AZT or DDI were used as controls. The cultures were examined for syncytia formation on days 7 and 11 post-infection or the supernants tested for reverse transcriptase activity or p24 antigen.
(§2) RF represents the HIV-1 strain HIV-LRF and RFR represents a mixture of resistant strains obtained by selection of RF against the compound of Example 1. RFR comprises a mixture of viral strains having protease genotypes of G48V (14/40 clones); G48V, V82A (18/40 clones); G48V, L90S (2/40 clones); G48V, 154T, V82A (1/40 clones); G48M (1/40 clones); G48V, Q61H (1/40 clones); V13I, G48V (1/40 clones); G48V, F53L, V82A (1/40 clones); and G48V, V82A, C95Y (1/40 clones). RFR2 represents a mixture of resistant strains obtained by cloning RFR by three rounds of growth at limiting dilution. RFR2 comprises a mixture of viral strains having protease genotypes of G48V, V82A (13/15 clones); G17E, G48V, V82A (1/15 clones); and G48V, V82A, N37D, N88D (1/15 clones). RFRR represents a mixture of resistant strains obtained by selection of RF against the compounds of Examples 1 and 2 and then cloning by three rounds of growth at limiting dilution. RFRR comprises a mixture of viral strains having protease genotypes of G48V, 154T, L63P, V82A (7/9 clones); G48V, 154T, L63P, V82A, N88S (1/9 clones); and G48V, 154T, L63P, G73M, V82A (1/9 clones). SF162 represents the HIV-1 strain SF-162 and SF162R represents a mixture of resistant strains obtained by selection of SF162 against the compound of Example 1. SF162R comprises a mixture of viral strains having protease genotypes of M461, F53L, L63P, A71V, N88D (2/3 clones); and M46I, F53L, L63P, A71V, N88D, Q92R (1/3 clones). 89-959 represents the HIV-1 strain 89-959 and 89-959R represents a mixture of resistant strains obtained by selection of 89-959 against the compound of Example 2. 89-959R comprises a mixture of viral strains having protease genotypes of N88S (4/5 clones); and D25N, T26A, D30N, D37N, R41K, G73D, R87K, N88S (1/4 clones). NL4 represents the HIV-1 strain HIV-1NL4-3. NL4(G48V) represents a strain having a synthetically generated site-directed mutation in the protease from glycine to valine at amino acid position number 48. NL4(I84V) represents a strain having a synthetically generated site-directed mutation in the protease from isoleucine to valine at amino acid position number 84. NL4(R8Q,M46I) represents a strain having synthetically generated site-directed mutations in the protease from arginine to glutamine at amino acid position number 8 and methionine to isoleucine at amino acid position number 46. NL4(P22-538) represents a mixture of resistant strains obtained by selection of HIV-1NL4-3 against the compound of Example 10 after 22 passages comprising protease genotypes M46I, L63P, A71V, V82F, I84V (4/10); M46I, L63P, V82F, I84V (3/10); and M46I, A71V, V82F, I84V (3/10). NL4(P37-538) represents resistant strains obtained by selection of HIV-1NL4-3 against the compound of Example 10 after 37 passages comprising protease genotype M46I, L63P, A71V, 184A. NL4(538/524) represents resistant strains obtained by selection of NL4(P22-538) against the compound of Example 5 after 24 passages comprising protease genotype M46I, L63P, A71V, 184A. […]

[2] = test system: 89-959R (resistant strains selected from 89-959 against Example 2); assay: Acute infectivity assay in PHA-activated donor lymphocytes, resistant isolate 89-959R; format: cell-based, HIV-1; conditions: Human immunodeficiency virus 1, Lymphocyte, read-out: Virus Isolate (EC50 ng/mL) 89-959R
Experimental: as §1, §2

CC(C)CCN(C[C@@H](O)[C@H](Cc1ccccc1)NC(=O)[C@H](CC(N)=O)NC(=O)c1ccc2ccccc2n1)C(=O)NC(C)(C)C (relative stereo) [Example 7, [1S-[1R*(R*),2S*]]-N^1-[3-[[[(1,1-dimethylethyl)amino]carbonyl](3-methylbutyl)amino]-2-hydroxy-1-(phenylmethyl)propyl]-2-[(2-quinolinylcarbonyl)amino]-butanediamide]
EC50 [1]: 13 ng/mL (≈ 0.021 µM)
EC50 ([2]; Table 3, experiments † and §): 12 ng/mL (≈ 0.0194 µM)

CNCC(=O)N[C@H](C(=O)N[C@@H](Cc1ccccc1)[C@H](O)CN(CCC(C)C)C(=O)NC(C)(C)C)C(C)(C)C [Example 2, (2R,3S)-3-(N-methylaminoacetyl-L-tert-butylglycinyl)amino-1-(N-isoamyl-N-(tert-butylcarbamoyl))amino-4-phenyl-2-butanol]
EC50 [1]: 100 ng/mL (≈ 0.187 µM)
EC50 ([2]; Table 3, (experiment ‡)): 872 ng/mL (≈ 1.63 µM)
EC50 ([2]; Table 3, experiments † and §): 395 ng/mL (≈ 0.74 µM)

CC(C)(C)NC(=O)[C@@H]1CN(Cc2cccnc2)CCN1C[C@@H](O)C[C@@H](Cc1ccccc1)C(=O)N[C@H]1c2ccccc2C[C@H]1O [Example 5, N-(2(R)-Hydroxy-1(S)-indanyl)-2(R)-phenylmethyl-4(S)-hydroxy-5-(1-(4-(3-pyridylmethyl)-2(S)-N′-(t-butylcarboxamido)-piperazinyl))-pentaneamide]
EC50 [1]: 36 ng/mL (≈ 0.0587 µM)
EC50 ([2]; Table 3, (experiment ‡)): 38 ng/mL (≈ 0.0619 µM)
EC50 ([2]; Table 3, experiments † and §): 5 ng/mL (≈ 0.00815 µM)

CC(C)(C)NC(=O)[C@@H]1CC2CCCC[C@@H]2CN1C[C@@H](O)[C@H](Cc1ccccc1)NC(=O)[C@H](CC(N)=O)NC(=O)c1ccc2ccccc2n1 (stereo in doubt) [Example 6, N-tert-Butyl decahydro-2-[2(R)-hydroxy-4-phenyl-3(S)-[[N-(2-quinolylcarbonyl)-L-asparaginyl]amino]butyl]-(4aR,8aS)-isoquinoline-3(S)-carboxamide]
EC50 [1]: 4 ng/mL (≈ 0.00596 µM)
EC50 ([2]; Table 3, (experiment ‡)): 6 ng/mL (≈ 0.00894 µM)

CC(C)CN(C[C@@H](O)[C@H](Cc1ccccc1)NC(=O)[C@H](CC(N)=O)NC(=O)c1ccc2ccccc2n1)C(=O)NC(C)(C)C (relative stereo) [Example 1, [1S-[1R*(R*),2S*]]-N^1-[3-[[[(1,1-dimethylethyl)amino]carbonyl])2-methylpropyl)amino]-2-hydroxy-1-(phenylmethyl)propyl]-2-[(2-quinolinylcarbonyl)amino]-butanediamide]
EC50 [1]: 96 ng/mL (≈ 0.159 µM)
EC50 ([2]; Table 3, (experiment ‡)): 37 ng/mL (≈ 0.0612 µM)
EC50 ([2]; Table 3, experiments † and §): 5 ng/mL (≈ 0.00827 µM)

CC(C)CN(C[C@@H](O)[C@H](Cc1ccccc1)NC(=O)[C@H](CC(N)=O)NC(=O)c1ccc2ccccc2n1)S(=O)(=O)NC(C)(C)C [Example 8, N-[3-[N^2-[N^1-(1,1-dimethylethyl)aminosulfonyl]-N^2-(2-methylpropyl)amino]-2R-hydroxy-1S-(phenylmethyl)propyl]-2S-[(2-quinolinylcarbonyl)amino]butanediamide]
EC50 [1]: 12 ng/mL (≈ 0.0187 µM)
EC50 ([2]; Table 3, experiments † and §): 11 ng/mL (≈ 0.0172 µM)
